The target in test [1] is T1, GST-tagged recombinant human TYRO3 kinase domain (Homo sapiens, UniProt Q06418).
T1 construct: GST-tagged recombinant human TYRO3 kinase domain; purchased Carna PR7480A
T1 sequence (Q06418 518-790 limits assumed): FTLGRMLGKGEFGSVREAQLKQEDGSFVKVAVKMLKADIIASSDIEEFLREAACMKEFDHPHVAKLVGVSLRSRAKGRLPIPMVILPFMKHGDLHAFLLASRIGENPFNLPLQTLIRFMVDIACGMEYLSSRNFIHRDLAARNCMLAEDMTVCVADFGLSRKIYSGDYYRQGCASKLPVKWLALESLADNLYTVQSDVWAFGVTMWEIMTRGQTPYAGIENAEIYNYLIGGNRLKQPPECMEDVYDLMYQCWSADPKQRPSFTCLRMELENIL
Nature of the test: TYRO3 Enzyme Assay (LanthaScreen Eu Kinase Binding). Conditions: averaged IC50; TYRO3 5 nM; 60-minute incubation at 22° C.; TR-FRET. An outline of the steps:
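Competitive tracer-displacement TR-FRET: 5 nM kinase, 20 nM Alexa-Fluor Tracer 236 and 2 nM Eu-anti-GST with threefold-diluted compound in 25 mM HEPES pH 7.4, 10 mM MgCl2, 0.01% Triton X-100, 2% DMSO, 60 min at 22° C. Ratiometric percent of control fitted to a 4-parameter logistic; IC50 at 50 POC.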

Test [2] concerns the target T2, human MET kinase del Ex14 (Homo sapiens, UniProt P08581, DEL963-1009).
T2 construct: GST-tagged recombinant human MET kinase domain; purchased Signal Chem
Kind of test: c-Met Enzyme Assay, del Ex14 mutant. The following applies: averaged IC50; del Ex14 5 nM; 60-minute incubation at 22° C.; read-out: Del14 IC50. It counts as binding. On the procedure: The affinity of compound binding to wild type and mutant human MET kinases was measured using Invitrogen's LanthaScreen™ Eu Kinase Binding technology. Briefly, GST-tagged recombinant human MET kinase domain from Signal Chem (see Table 8 below for concentration in assay) was incubated with 50 nM Alexa-Fluor® Tracer 236 (Invitrogen Cat No. PR9078A) and 2 nM Europium-anti-GST (Invitrogen Cat. No. A15116) along with test compound in a buffer consisting of 25 mM HEPES, pH 7.4, 10 mM MgCl2, 0.01% Triton X-100, 1mM DTT, and 2% DMSO. Compounds were typically prepared in a three-fold serial dilution in DMSO and added to the assay to give the appropriate final concentration. After a 60-minute incubation at 22° C., the reaction was measured using a PerkinElmer EnVision multimode plate reader via TR-FRET dual wavelength detection, and the percent of control (POC) calculated using a ratiometric emission factor. […] The POC values were fit to a 4 parameter logistic curve and the IC50 value is point where the curve crosses 50 POC.

T2 sequence (P08581 with tags, fused parts or gaps DEL963-1009 limits assumed): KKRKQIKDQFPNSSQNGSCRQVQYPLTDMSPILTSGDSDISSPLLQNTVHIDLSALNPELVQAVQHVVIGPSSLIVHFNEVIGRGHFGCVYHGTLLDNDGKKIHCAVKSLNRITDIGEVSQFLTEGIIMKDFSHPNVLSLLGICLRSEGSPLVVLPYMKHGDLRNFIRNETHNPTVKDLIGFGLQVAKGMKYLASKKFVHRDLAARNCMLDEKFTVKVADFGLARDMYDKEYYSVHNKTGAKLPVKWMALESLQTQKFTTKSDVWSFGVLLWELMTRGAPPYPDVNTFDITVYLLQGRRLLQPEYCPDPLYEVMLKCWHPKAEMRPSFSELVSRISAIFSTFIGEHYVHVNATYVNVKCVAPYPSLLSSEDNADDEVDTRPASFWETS

For the compound `CCOc1ccc2nccc(Oc3ccc(NC(=O)c4cn(C(C)C)cc(-c5ccc(F)cc5)c4=O)nc3)c2c1` [Example 51, N-(5-((6-ethoxyquinolin-4-yl)oxy)pyridin-2-yl)-5-(4-fluorophenyl)-1-isopropyl-4-oxo-1,4-dihydropyridine-3-carboxamide], the figures for the IC50 in test [1] and in test [2] were 112 nM and 29.4 nM, respectively.
For `CCCC(CCC)n1cc(C(=O)Nc2ccc(Oc3ccnc4cc(OC)c(OC)cc34)cn2)c(=O)c(-c2ccc(F)cc2F)c1` [Example 17, 5-(2,4-difluorophenyl)-N-(5-((6,7-dimethoxyquinolin-4yl)oxy)pyridin-2-yl)-1-(heptan-4-yl)-4-oxo-1,4-dihydropyridine-3-carboxamide] the same measures were 76 nM and 17.1 nM.
Regarding `COc1cc2nccc(Oc3ccc(NC(=O)c4cn(CC(=O)N5CCCC5)cc(-c5ccc(F)cc5F)c4=O)nc3)c2cc1OC` [Example 14], the results for the IC50 in test [1] and in test [2] were 129 nM and 15.9 nM, respectively.
For `COc1cc2nccc(Oc3ccc(NC(=O)c4cn(CC(=O)N(C)C)cc(-c5ccc(F)cc5F)c4=O)nc3)c2cc1OC` [Example 13, 5-(2,4-difluorophenyl)-N-(5((6,7-dimethoxyquinolin-4-yl)oxy)pyridin-2-yl)-1-(2-(dimethylamino)-2-oxoethyl)-4-oxo-1,4-dihydropyridine-3-carboxamide] the same measures were 22 nM and 4.9 nM.
For the compound `COc1cc2nccc(Oc3ccc(NC(=O)c4cn(C(C)C)cc(-c5ccc(F)c(Cl)c5)c4=O)nc3)c2cc1OC` [Example 21, 5-(3-chloro-4-fluorophenyl)-N-(5-((6,7-dimethoxyquinolin-4-yl)oxy)pyridin-2-yl)-1-isopropyl-4-oxo-1,4-dihydropyridine-3-carboxamide], the half-maximal inhibitory concentration (IC50) worked out at 26 nM in test [1] and 13.6 nM in test [2].
As to `CCCn1cc(C(=O)Nc2ccc(Oc3ccnc4cc(OC)c(OC)cc34)cn2)c(=O)c(-c2ccc(F)cc2)c1` [Example 10, N-(5((6,7-dimethoxyquinolin-4-yl)oxy)pyridin-2-yl)-5-(4-fluorophenyl)-4-oxo-1-propyl-1,4-dihydropyridine-3-carboxamide], the figures for the IC50 in test [1] and in test [2] were 15 nM and 3.5 nM, respectively.
Turning to `COc1cc2nccc(Oc3ccc(NC(=O)c4c[nH]cc(-c5ccc(F)cc5)c4=O)nc3)c2cc1OC` [Example 26, N-(5-((6,7-dimethoxyquinolin-4yl)oxy)pyridin-2-yl)-5-(4-fluorophenyl)-4-oxo-1,4-dihydropyridine-3-carboxamide], the IC50 in test [1] came to 15 nM; in test [2], 5.2 nM.
For `COc1cc2c(Oc3ccc(NC(=O)c4cn(C(C)C)c(C)c(-c5ccc(F)cc5)c4=O)nc3)ccnc2cc1F` [Example 48, N-(5-((7-fluoro-6-methoxyquinolin-4yl)oxy)pyridin-2-yl)-5-(4-fluorophenyl)-1-isopropyl-6-methyl-4-oxo-1,4-dihydropyridine-3-carboxamide] the same measures were 10 nM and 4.9 nM.
For `COc1cc2nccc(Oc3ccc(NC(=O)c4cn(CCC(C)C)cc(-c5ccc(F)cc5)c4=O)nc3)c2cc1OC` [Example 34, N-(5-((6,7-dimethoxyquinolin-4yl)oxy)pyridin-2-yl)-5-(4-fluorophenyl)-1-isopentyl-4-oxo-1,4-dihydropyridine-3-carboxamide] the same measures were 14 nM and 5.7 nM.
For the compound `CCn1cc(C(=O)Nc2ccc(Oc3ccnc4cc(OC)c(OC)cc34)cn2)c(=O)c(-c2ccc(F)cc2)c1` [Example 3], the IC50 in test [1] was found to be 5 nM; in test [2], 3 nM.
As for `COc1cc2nccc(Oc3ccc(NC(=O)c4cn(C)cc(-c5ccc(F)cc5)c4=O)nc3)c2cc1OC` [Example 2], the half-maximal inhibitory concentration (IC50) in test [1] was 6 nM; in test [2] it was 5.3 nM.
For `COc1cc2nccc(Oc3cnc(NC(=O)c4cn(C(C)C)cc(-c5ccc(F)cc5)c4=O)nc3)c2cc1OC` [Example 54, N-(5-((6,7-dimethoxyquinolin-4-yl)oxy)pyrimidin-2-yl)-5-(4-fluorophenyl)-1-isopropyl-4-oxo-1,4-dihydropyridine-3-carboxamide] the same measures were 21 nM and 3.8 nM.
As for `COc1cc2nccc(Oc3ccc(NC(=O)c4cn(CCN(C)C)cc(-c5ccc(F)cc5F)c4=O)nc3)c2cc1OC` [Example 44, 5-(2,4-difluorophenyl)-N-(5-((6,7-dimethoxyquinolin-4-yl)oxy)pyridin-2-yl)-1-(2-(dimethylamino)ethyl)-4-oxo-1,4-dihydropyridine-3-carboxamide], the IC50 in test [1] came out at 4 nM; in test [2], 2.1 nM.
For `CCOc1ccc2c(Oc3ccc(NC(=O)c4cn(C(C)C)cc(-c5ccc(F)cc5)c4=O)nc3)ccnc2c1` [Example 52, N-(5-((7-ethoxyquinolin-4-yl)oxy)pyridin-2-yl)-5-(4-fluorophenyl)-1-isopropyl-4-oxo-1,4-dihydropyridine-3-carboxamide] the same measures were 18 nM and 10.3 nM.
As to `COc1cc2nccc(Oc3ccc(NC(=O)c4cn(CCC(C)C)cc(-c5ccc(Cl)cc5)c4=O)nc3)c2cc1OC` [Example 37], the values for the IC50 in test [1] and in test [2] were 30 nM and 12.2 nM, respectively.
Turning to `CC(C)n1cc(C(=O)Nc2ccc(Oc3ccnc4cc(OC(F)(F)F)ccc34)cn2)c(=O)c(-c2ccc(F)cc2)c1` [Example 50, 5-(4-fluorophenyl)-1-isopropyl-4-oxo-N-(5-((7-(trifluoromethoxy)quinolin-4-yl)oxy)pyridin-2-yl)-1,4-dihydropyridine-3-carboxamide], the values for the half-inhibitory concentration (IC50) in test [1] and in test [2] were 470 nM and 90.4 nM, respectively.
For `CNC(=O)Cn1cc(C(=O)Nc2ccc(Oc3ccnc4cc(OC)c(OC)cc34)cn2)c(=O)c(-c2ccc(F)cc2)c1` [Example 22] the same measures were 14 nM and 3.1 nM.
For `COc1cc2nccc(Oc3ccc(NC(=O)c4cn(CC(C)(C)O)cc(-c5ccc(F)cc5)c4=O)nc3)c2cc1OC` [Example 9, N-(5-((6,7-dimethoxyquinolin-4-yl)oxy)pyridin-2-yl)-5-(4-fluorophenyl)-1-(2-hydroxy-2-methylpropyl)-4-oxo-1,4-dihydropyridine-3-carboxamide] the same measures were 13 nM and 5.6 nM.
For `COc1cc2nccc(Oc3ccc(NC(=O)c4cn(C(C)C)cc(-c5ccc(F)cc5Cl)c4=O)nc3)c2cc1OC` [Example 18, 5-(2-chloro-4-fluorophenyl)-N-(5-((6,7-dimethoxyquinolin-4-yl)oxy)pyridin-2-yl)-1-isopropyl-4-oxo-1,4-dihydropyridine-3-carboxamide] the same measures were 4 nM and 3.2 nM.
For the compound `COc1cc2c(Oc3ccc(NC(=O)c4cn(C(C)C)cc(-c5ccc(F)cc5)c4=O)nc3)ccnc2cc1F` [Example 49, N-(5-((7-fluoro-6-methoxyquinolin-4yl)oxy)pyridin-2-yl)-5-(4-fluorophenyl)-1-isopropyl-4-oxo-1,4-dihydropyridine-3-carboxamide], the figures for the IC50 in test [1] and in test [2] were 58 nM and 22 nM, respectively.
For `COc1cc2nccc(Oc3ccc(NC(=O)c4cn(CC(=O)N5CCOCC5)cc(-c5ccc(F)cc5F)c4=O)nc3)c2cc1OC` [Example 15, 5-(2,4-difluorophenyl)-N-(5-((6,7-dimethoxyquinolin-4-yl)oxy)pyridin-2-yl)-1-(2-morpholino-2-oxoethyl)-4-oxo-1,4-dihydropyridine-3-carboxamide] the same measures were 292 nM and 29.5 nM.
On to `COc1cc2nccc(Oc3ccc(NC(=O)c4cn(C(C)C)cc(-c5ccc(Cl)cc5)c4=O)nc3)c2cc1OC` [Example 5, 5-(4-chlorophenyl)-N-(5-((6,7-dimethoxyquinolin-4-yl)oxy)pyridin-2-yl)-1-isopropyl-4-oxo-1,4-dihydropyridine-3-carboxamide], for which the IC50 in test [1] is 12 nM; in test [2], 6.4 nM.
For the compound `COc1cc2nccc(Oc3ccc(NC(=O)c4cn(C(C)C)cc(-c5ccc(F)cc5OC)c4=O)nc3)c2cc1OC` [Example 32, N-(5-((6,7-dimethoxyquinolin-4yl)oxy)pyridin-2-yl)-5-(4-fluoro-2-methoxyphenyl)-1-isopropyl-4-oxo-1,4-dihydropyridine-3-carboxamide], the figures for the concentration for half-maximal inhibition (IC50) in test [1] and in test [2] were 9 nM and 3.2 nM, respectively.
For `COc1cc2nccc(Oc3ccc(NC(=O)c4cn(CCN(C)C)cc(-c5ccc(Cl)cc5)c4=O)nc3)c2cc1OC` [Example 42] the same measures were 16 nM and 1.9 nM.

The values above are taken from patent US20200216416A1, “QUINOLINE COMPOUNDS AS INHIBITORS OF TAM AND MET KINASES” (Array BioPharma Inc., priority 2019, published 2020).
